Experimental data: US12467038B2, “Methods of culturing human pluripotent cells” (Hadasit Medical Research Services and Development Ltd., priority 2019, dated 2025)

Tests used:
LN-hPSCs = test: FACS analysis of pluripotency cell-surface markers; format: cell-based, human; settings: HES-1 cells cultured on LN111
Protocol: Signaling pathways analysis—hPSCs were cultured on LN111 for 2 days in complete medium, and then for additional 3-5 days in a medium+/−FGF2 in the presence of the following small molecules: PD032590 1 μM (Peprotech), LY294002 10 μM, SB431542 10 μM, CHIR99021 3 μM (all from Cayman Chemical, Michigan, USA), XAV939 2.5 μM (Peprotech), BMP4 50 ng/ml (Biogems-Peprotech). FACS analysis—FACS analyses were performed using the following primary antibodies: mouse IgM anti-TRA-1-60 (1:100; mab4360, R&D), and mouse IgM anti-TRA-1-81 (1:100; mab4381, R&D), and Rat IgM anti-SSEA-3. Staining with respective isotype control antibodies (all from eBiosciences) served as controls. Detection of primary antibodies was performed using the following secondary antibodies: FITC-conjugated Polyclonal Goat Anti-Mouse Immunoglobulins (1:100; Dako, Glostrup, Denmark), APC-conjugated Goat anti-Mouse IgM/G (1:200; Cat. No. 1020-11, SouthernBiotech, Birmingham, Ala., USA), and APC-conjugated anti-Rat (1:200; eBioscience). FACS analysis was performed on a FACScalibur system (Becton-Dickinson, San Jose, Calif.) using the Cellquest software. A detailed FACS procedure is described elsewhere. FACS analysis—FACS analyses for pluripotency marker expression were performed using mouse anti-TRA-1-60 (1:100; mab4360, R&D), and mouse anti-TRA-1-81 (1:100; mab4381, R&D). […]

hPSCs = test: Undifferentiated propagation and PGC differentiation of hPSCs on laminin; format: cell-based, human; settings: HES-2 hPSCs
Protocol: LN-hPSCs were cultured on mouse LN111, 3-D Culture Matrix Laminin I (CULTREX, TREVIGEN, #3446-005-01, Gaithersburg, Md., USA). 0.175 ml diluted LN111 (1:14 to a coating concentration of 0.43 mg/ml) was used to coat a well of a 6-well culture dish, leaving a margin of 2-3 mm at the well edge (a final concentration of ˜8 microgram/cm^2). The coated dishes were incubated from 4 hours to 4 days, at 37° C., and washed with PBS before use. LN-hPSCs were cultured in a medium composed of DMEM/F12, B27 supplement (1:50), N2 supplement (1:100), 2 mM L-glutamine, 50 units/ml penicillin, 50 μg/ml streptomycin (all from Invitrogen), and supplemented daily with 20 ng/ml FGF2 (Peprotech). Cells were passaged every 5-6 days using 1.5 mg/ml collagenase type IV (Invitrogen). 5 μM ROCK inhibitor (Y-27632, Peprotech) was added for the first day after passaging.
hPSCs were cultured on human recombinant LN521 (BIOLAMINA, Sundbyberg, Sweden). Coating of culture dishes with hrLN521 was performed according to the manufacturer's instructions (Coating concentration ˜0.45 microgram/cm^2). Cells were cultured in the same medium used for culturing LN-hPSCs, and passaged with collagenase type IV.
PGC differentiation of hPSCs in suspension—LN-hPSCs and hPSCs cultured on hrLN-521 were dissociated into a single-cell suspension using TrypLE Select Enzyme (Invitrogen). Primed hPSCs were first dissociated from the MEF feeders by treatment with collagenase type IV, followed by dissociation into single cells by TrypLE Select Enzyme. 2000-3000 cells were seeded into a microwell of AggreWell™800 24-well plate (STEMCELL Technologies), and cultured as EBs in suspension, in PGCLC differentiation medium as described elsewhere (Irie et al., 2015).

## LN111: mouse LN111, 3-D Culture Matrix Laminin I (CULTREX, TREVIGEN), coating of culture dishes
LN-hPSCs
  cells expressing TRA-1-60 and TRA-1-81: over 90%
hPSCs
  competence to initiate germ cell specification: competent to initiate germ cell specification
